# Test system: BALB/cA Jcl-nu mice transplanted with human lung cancer cell line NCI-H441
# Experiment: Toxicity alleviating effect against pemetrexed in tumor-bearing mouse
# Details: deaths/animals during the test, pemetrexed 50 mg/kg/day, Compound 1 600 mg/kg/day
# Method: Cells of a human lung cancer cell line, NCI-H441, were suspended in a PBS containing 50% [sequence], and the suspension was transplanted subcutaneously into the right-side chest of each of 8-week old BALB/cA Jcl-nu mice (Crea-Japan, Inc.) in an amount of 5×10^6 cells/0.1 mL/body. At the time when the average tumor volume after grouping became more than 100 mm^3, the major axis and the minor axis of the tumor were measured, and grouping was performed such that there would be no fluctuations in the tumor volumes of the various groups (6 animals per group). Furthermore, the mice were maintained under conditions of low-folic acid feed breeding from the age of 5 weeks to the day of test completion.
# Pemetrexed (manufactured by LC Laboratories, Inc.) was dissolved in physiological saline, and the solution was administered through the caudal vein on Day 1, which was the day after the day of grouping, and on Day 8, which was one week thereafter. Furthermore, Compound 1 was suspended in a 0.5% aqueous solution of hydroxypropylmethyl cellulose, and the suspension was orally administered once a day for 14 consecutive days from the day after the day of grouping. […]
# After grouping, the body weights (BW) were measured twice a week, and the rate of bodyweight change (bodyweight change; BWC) was calculated by the following formula, the toxicity alleviating effect was evaluated. […]
smiles,measurement,setting,value
Nc1nc2[nH]cc(CCc3ccc(C(=O)N[C@@H](CCC(=O)O)C(=O)O)cc3)c2c(=O)[nH]1 [Pemetrexed],No. of Death,,1/6
same,No. of Death,listed as pemetrexed,one death case out of six animals
